Where two headings read alike, the source gives them in different places. Blank lines part the entries; values can stand above or below the compound they belong to.
What was measured:
[1] = molecular target: T1, Native NMDA receptor, Medial Striatum (NR2B) (Rattus norvegicus, UniProt Q00960); experiment: quantitative receptor autoradiography of [3H]-glutamate labeled native NMDA receptors, medial striatum; assay type: binding
T1 construct: Native NMDA Receptor Potency; from tissue; host or cells: rat brain sections, medial striatum
Description: (§1) PPDA (50 μM) also had no effect on depolarizations following administration of (1S,3R)-1-amino-1,3-cyclopentane dicarboxylic acid (ACPD; 30 μM). APCD is a Group I metabotropic glutamate (mGlu) receptor agonist. The recited values were determined by using quantitative receptor autoradiography of [^3H]-glutamate labeled NMDA receptors in rat brain tissue sections.
(§2) The potency of PPDA for native NMDA receptors was also investigated in a Xenopus oocyte system.

[2] = system: Group I metabotropic glutamate (mGlu) receptor; experiment: ACPD-induced depolarizations on neonatal rat motoneurones; assay type: cell-based; conditions: PPDA 50 μM; ACPD 30 μM
Description: (§3) Hemisected neonatal rat spinal cords (Evans and Watkins, European Journal of Pharmacology, 50: 123-129, 1978) were isolated and wire electrodes were placed under the exposed ventral roots. The preparation was superfused with standard Ringers (containing in mM: NaCl 118, NaHCO3 25, KCl 3, CaCl2 2.5, D-glucose 12 and gassed with 95% O2/5% CO2). To record agonist-induced responses, 0.1 μM tetrodotoxin was included to block synaptic transmission and associated depolarizations. Agonist (N-methyl-D-aspartate (NMDA)) was superfused for 60-120 seconds at a rate of 1 ml/minute. The relative positive potentials recorded by the distal (to spinal cord) wire electrode compared to the proximal electrode was taken as an indication of motor neuron cell body depolarization. Antagonism of agonist-induced responses was observed by co-application of the antagonist PPDA.
as §1

[3] = molecular target: Native NMDA receptor, Midline thalamus (NR2B/NR2D); experiment: quantitative receptor autoradiography of [3H]-glutamate labeled native NMDA receptors, midline thalamus; assay type: binding; conditions: [3H]-glutamate autoradiography, rat brain sections; read-out: Ki, native NMDA receptor potency, Midline thalamus (NR2B/NR2D)
Description: as §1, §2

NR1/NR2D [4] = molecular target: T2, NR1/NR2D (Rattus norvegicus, UniProt P35439+Q62645); experiment: two-microelectrode voltage clamp of recombinant NMDA receptors in Xenopus oocytes, NR1/NR2D; assay type: cell-based
T2 construct: expressed in transfected cells; host or cells: Xenopus oocytes injected with in vitro transcribed RNA
T2 sequence (Q62645 28-1323, other chains not shown): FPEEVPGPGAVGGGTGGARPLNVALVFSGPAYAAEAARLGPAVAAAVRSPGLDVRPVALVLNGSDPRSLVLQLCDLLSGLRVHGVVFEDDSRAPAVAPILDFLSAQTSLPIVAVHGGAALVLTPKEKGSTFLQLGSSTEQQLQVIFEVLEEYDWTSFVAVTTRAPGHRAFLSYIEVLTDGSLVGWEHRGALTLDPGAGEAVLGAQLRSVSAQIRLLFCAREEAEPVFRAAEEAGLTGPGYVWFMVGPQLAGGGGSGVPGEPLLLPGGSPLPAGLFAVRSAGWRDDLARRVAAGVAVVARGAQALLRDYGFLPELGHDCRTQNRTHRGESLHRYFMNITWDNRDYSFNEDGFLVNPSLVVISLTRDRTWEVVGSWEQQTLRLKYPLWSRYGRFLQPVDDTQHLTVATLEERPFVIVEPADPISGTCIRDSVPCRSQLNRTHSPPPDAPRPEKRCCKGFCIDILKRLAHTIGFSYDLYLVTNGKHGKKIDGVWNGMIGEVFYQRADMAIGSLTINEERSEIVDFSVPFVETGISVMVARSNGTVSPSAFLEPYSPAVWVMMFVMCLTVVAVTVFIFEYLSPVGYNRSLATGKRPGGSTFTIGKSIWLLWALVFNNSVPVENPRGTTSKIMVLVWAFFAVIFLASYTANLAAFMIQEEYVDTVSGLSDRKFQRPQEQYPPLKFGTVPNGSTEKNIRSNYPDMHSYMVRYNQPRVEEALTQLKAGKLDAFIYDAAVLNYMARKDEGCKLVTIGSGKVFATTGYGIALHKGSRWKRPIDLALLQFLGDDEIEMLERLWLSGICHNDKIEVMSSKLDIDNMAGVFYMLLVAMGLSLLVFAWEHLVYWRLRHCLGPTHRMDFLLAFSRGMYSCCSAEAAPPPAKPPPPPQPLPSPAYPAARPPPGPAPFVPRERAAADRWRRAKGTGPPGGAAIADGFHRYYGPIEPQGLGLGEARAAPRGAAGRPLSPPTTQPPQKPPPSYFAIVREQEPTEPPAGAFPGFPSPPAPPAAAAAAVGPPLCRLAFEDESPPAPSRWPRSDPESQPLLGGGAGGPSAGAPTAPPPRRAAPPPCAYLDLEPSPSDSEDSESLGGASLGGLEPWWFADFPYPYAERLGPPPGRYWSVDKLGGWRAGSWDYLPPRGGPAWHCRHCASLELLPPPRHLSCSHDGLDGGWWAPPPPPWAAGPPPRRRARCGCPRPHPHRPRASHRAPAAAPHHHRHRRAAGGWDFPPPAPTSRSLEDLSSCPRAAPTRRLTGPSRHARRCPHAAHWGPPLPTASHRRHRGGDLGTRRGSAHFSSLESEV
Description: (§4) RNA translation and transcription in Xenopus oocytes and electrophysiological recordings were performed as previously described (Monaghan D T, Larson H (1997) J Pharmacol Exp Ther 280:614 -620). Plasmids were linearized with NotI (NR1a), EcoRI (NR2A, NR2C, and NR2D), or SalI (NR2B) and transcribed in vitro using the mMessage mMachine RNA polymerase transcription kit (Ambion, Austin, Tex.). NR1 a was mixed 1:3 with NR2A, NR2B, NR2C, or NR2D RNA, and 2-50 ng of this mixture was injected into oocytes. Agonist-evoked responses were measured using a standard two-microelectrode voltage clamp (model OC-725B Oocyte Clamp; Warner Instruments, Hamden, Conn.) at a holding potential of −60 mV. Glutamate (10 μM) and glycine (10 μM) were applied until stable plateau responses were obtained; (±)-cis-1-(phenanthren-2-yl-carbonyl)-piperazine-2,3-dicarboxylic acid (PPDA) (0.1, 0.3, 1, 3, 10, or 30 μM) was then applied until steady-state blockade was obtained, followed by antagonist washout and full agonist responses. Current responses were captured and analyzed with AxoData (Axon Instruments, Foster City, Calif.) and GraphPad Prism (ISI Software, San Diego, Calif.) software. Ki values were corrected for agonist affinity according to the Cheng-Prusoff equation. Data in Table 3 are expressed as mean Kl±SEM. […]

[5] = system: AMPA subtype of glutamate receptors; experiment: AMPA-induced depolarizations on neonatal rat motoneurones; assay type: cell-based; conditions: PPDA 5 μM, AMPA 6 μM
Description: as §3
(§5) AMPA and kainate are protypical agonists which show selectivity for, and predominantly activate, the AMPA and kainate subtypes of glutamate receptors. In additional assays, PPDA was tested at a concentration of 5 μM (which is approximately 20 times the Kd value for the antagonism of NMDA receptors) as an antagonist of AMPA (6 μM)-, kainate (50 μM)- and NMDA (50 μM)-induced depolarizations (approximate EC50 concentrations used) on neonatal rat motoneurones.

[6] = molecular target: T3, Native NMDA receptor, Cerebellum (NR2A) (Rattus norvegicus, UniProt Q00959); experiment: quantitative receptor autoradiography of [3H]-glutamate labeled native NMDA receptors, cerebellum NR2A; assay type: binding
T3 construct: Native NMDA Receptor Potency; from tissue; host or cells: rat brain sections, cerebellum
Description: as §1, §2

NR1/NR2C [7] = molecular target: T4, NR1/NR2C (Rattus norvegicus, UniProt P35439+Q00961); experiment: two-microelectrode voltage clamp of recombinant NMDA receptors in Xenopus oocytes, NR1/NR2C; assay type: cell-based
T4 construct: expressed in transfected cells; host or cells: Xenopus oocytes injected with in vitro transcribed RNA
T4 sequence (Q00961 20-1237, other chains not shown): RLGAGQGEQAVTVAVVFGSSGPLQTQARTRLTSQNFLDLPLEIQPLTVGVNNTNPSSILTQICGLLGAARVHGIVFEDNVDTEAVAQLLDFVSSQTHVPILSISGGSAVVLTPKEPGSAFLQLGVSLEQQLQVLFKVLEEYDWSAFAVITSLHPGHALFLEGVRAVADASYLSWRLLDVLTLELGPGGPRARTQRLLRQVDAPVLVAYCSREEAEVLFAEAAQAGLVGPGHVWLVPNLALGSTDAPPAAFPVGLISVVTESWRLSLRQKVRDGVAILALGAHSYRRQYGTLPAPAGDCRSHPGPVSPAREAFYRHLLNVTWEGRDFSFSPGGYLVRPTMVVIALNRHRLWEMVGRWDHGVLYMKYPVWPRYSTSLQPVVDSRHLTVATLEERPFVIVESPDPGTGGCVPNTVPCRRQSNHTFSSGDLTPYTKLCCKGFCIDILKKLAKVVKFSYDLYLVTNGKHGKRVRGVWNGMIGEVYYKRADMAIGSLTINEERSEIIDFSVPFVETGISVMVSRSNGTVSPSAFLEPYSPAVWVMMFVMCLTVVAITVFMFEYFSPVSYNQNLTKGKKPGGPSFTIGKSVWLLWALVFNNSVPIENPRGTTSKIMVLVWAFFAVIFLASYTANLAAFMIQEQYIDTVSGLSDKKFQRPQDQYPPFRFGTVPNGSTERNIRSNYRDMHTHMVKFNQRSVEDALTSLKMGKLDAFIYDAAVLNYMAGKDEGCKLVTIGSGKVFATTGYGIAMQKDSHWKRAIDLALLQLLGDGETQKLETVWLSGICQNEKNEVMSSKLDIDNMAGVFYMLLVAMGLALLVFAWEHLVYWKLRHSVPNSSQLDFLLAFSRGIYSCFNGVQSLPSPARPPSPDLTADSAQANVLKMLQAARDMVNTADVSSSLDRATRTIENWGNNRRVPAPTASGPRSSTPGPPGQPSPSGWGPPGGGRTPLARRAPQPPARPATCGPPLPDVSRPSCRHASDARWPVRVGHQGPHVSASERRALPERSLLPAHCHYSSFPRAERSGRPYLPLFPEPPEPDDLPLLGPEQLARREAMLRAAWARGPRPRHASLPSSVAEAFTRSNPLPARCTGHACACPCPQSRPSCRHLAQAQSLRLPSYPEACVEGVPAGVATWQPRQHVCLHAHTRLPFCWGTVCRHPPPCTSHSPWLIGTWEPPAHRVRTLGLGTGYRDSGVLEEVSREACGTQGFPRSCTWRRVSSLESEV
Description: as §4

native AMPA receptors = experiment: autoradiography, [3H]CNQX binding to native AMPA receptors; conditions: PPDA 10 μM; 100 nM [3H]CNQX; n=3
NR1/NR2B [8] = molecular target: T5, NR1/NR2B (Rattus norvegicus, UniProt P35439+Q00960); experiment: two-microelectrode voltage clamp of recombinant NMDA receptors in Xenopus oocytes, NR1/NR2B; assay type: cell-based
T5 construct: expressed in transfected cells; host or cells: Xenopus oocytes injected with in vitro transcribed RNA
Description: as §4

NMDA receptors = experiment: NMDA-induced depolarizations of motoneurones, hemisected neonatal rat spinal cord; assay type: cell-based
Description: as §3, §5

[9] = system: native non-NMDA glutamate receptors ([3H]kainate binding); experiment: autoradiography, [3H]kainate binding; conditions: PPDA 10 μM; 25 nM [3H]kainate; n=3
[10] = system: kainate subtype of glutamate receptors; experiment: kainate-induced depolarizations on neonatal rat motoneurones; assay type: cell-based; conditions: PPDA 5 μM, kainate 50 μM
Description: as §3, §5

[11] = molecular target: T6, Native NMDA receptor, Cerebellum (NR2C) (Rattus norvegicus, UniProt Q00961); experiment: quantitative receptor autoradiography of [3H]-glutamate labeled native NMDA receptors, cerebellum NR2C; assay type: binding
T6 construct: Native NMDA Receptor Potency; from tissue; host or cells: rat brain sections, cerebellum
T6 sequence (Q00961 20-1237, other chains not shown): as above
Description: as §1, §2

NR1/NR2C [12] = molecular target: T7, NR1/NR2C (Rattus norvegicus, UniProt Q00961); conditions: recombinant, Xenopus oocytes; from Buller and Monaghan 1997, mean +/- SEM, n=4-6; cited from earlier work
T7 construct: expressed in transfected cells; host or cells: Xenopus oocytes injected with in vitro transcribed RNA
T7 sequence (Q00961 20-1237, other chains not shown): as above

NR1/NR2D [13] = molecular target: T8, NR1/NR2D (Rattus norvegicus, UniProt Q62645); conditions: recombinant, Xenopus oocytes; from Buller and Monaghan 1997, mean +/- SEM, n=4-6; cited from earlier work
T8 construct: expressed in transfected cells; host or cells: Xenopus oocytes injected with in vitro transcribed RNA
T8 sequence (Q62645 28-1323, other chains not shown): as the sequence (Q62645 28-1323, other chains not shown) above

NR1/NR2B [14] = molecular target: T9, NR1/NR2B (Rattus norvegicus, UniProt Q00960); conditions: recombinant, Xenopus oocytes; from Buller and Monaghan 1997, mean +/- SEM, n=4-6; cited from earlier work
T9 construct: expressed in transfected cells; host or cells: Xenopus oocytes injected with in vitro transcribed RNA

NR1/NR2A [15] = molecular target: T10, NR1/NR2A (Rattus norvegicus, UniProt Q00959); conditions: recombinant, Xenopus oocytes; from Buller and Monaghan 1997, mean +/- SEM, n=4-6; cited from earlier work
T10 construct: expressed in transfected cells; host or cells: Xenopus oocytes injected with in vitro transcribed RNA
T10 sequence (Q00959 23-1464, other chains not shown): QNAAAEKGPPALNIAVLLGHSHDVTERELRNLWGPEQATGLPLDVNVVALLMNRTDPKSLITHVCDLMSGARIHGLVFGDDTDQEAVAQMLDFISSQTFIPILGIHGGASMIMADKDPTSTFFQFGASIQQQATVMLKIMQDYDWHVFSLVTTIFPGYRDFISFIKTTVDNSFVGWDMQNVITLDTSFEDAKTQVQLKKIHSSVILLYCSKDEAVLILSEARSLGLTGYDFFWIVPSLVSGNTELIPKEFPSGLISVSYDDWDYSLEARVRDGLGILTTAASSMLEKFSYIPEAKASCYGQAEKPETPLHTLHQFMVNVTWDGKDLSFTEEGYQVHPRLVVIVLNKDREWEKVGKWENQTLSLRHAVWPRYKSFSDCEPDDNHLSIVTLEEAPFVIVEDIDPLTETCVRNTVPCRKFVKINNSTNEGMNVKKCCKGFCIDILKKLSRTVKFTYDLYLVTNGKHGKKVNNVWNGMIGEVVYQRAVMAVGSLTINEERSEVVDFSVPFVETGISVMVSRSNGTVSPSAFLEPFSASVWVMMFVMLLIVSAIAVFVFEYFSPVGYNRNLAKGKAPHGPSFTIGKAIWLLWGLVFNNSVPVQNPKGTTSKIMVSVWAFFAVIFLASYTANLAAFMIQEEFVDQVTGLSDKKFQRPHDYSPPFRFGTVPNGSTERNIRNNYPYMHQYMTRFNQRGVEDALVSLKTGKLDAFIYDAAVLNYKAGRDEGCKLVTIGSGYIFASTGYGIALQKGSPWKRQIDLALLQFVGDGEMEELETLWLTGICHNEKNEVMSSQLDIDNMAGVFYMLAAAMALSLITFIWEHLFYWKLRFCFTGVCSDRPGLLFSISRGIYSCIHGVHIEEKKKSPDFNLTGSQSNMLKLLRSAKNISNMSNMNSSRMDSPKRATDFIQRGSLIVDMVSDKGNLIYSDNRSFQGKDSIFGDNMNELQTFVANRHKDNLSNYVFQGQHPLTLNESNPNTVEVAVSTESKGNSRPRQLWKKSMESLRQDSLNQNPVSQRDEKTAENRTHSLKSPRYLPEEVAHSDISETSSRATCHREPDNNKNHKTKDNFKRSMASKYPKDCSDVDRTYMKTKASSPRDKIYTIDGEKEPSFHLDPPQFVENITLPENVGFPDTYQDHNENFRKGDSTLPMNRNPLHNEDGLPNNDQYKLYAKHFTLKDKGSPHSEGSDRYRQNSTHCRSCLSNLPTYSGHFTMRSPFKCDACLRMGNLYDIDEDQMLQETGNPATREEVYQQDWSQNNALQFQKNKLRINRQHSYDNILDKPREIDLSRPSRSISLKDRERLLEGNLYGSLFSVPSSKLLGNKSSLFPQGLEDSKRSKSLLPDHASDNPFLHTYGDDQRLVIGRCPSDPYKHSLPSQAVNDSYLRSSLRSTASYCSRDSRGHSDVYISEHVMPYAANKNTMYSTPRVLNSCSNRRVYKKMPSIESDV

NR1/NR2A [16] = molecular target: T11, NR1/NR2A (Rattus norvegicus, UniProt P35439+Q00959); experiment: two-microelectrode voltage clamp of recombinant NMDA receptors in Xenopus oocytes, NR1/NR2A; assay type: cell-based; conditions: NR1a co-expressed in Xenopus oocytes, mean +/- SEM
T11 construct: expressed in transfected cells; host or cells: Xenopus oocytes injected with in vitro transcribed RNA
Description: as §4

SMILES: O=C(O)[C@H]1NCCN(C(=O)c2ccc3c(ccc4ccccc43)c2)[C@H]1C(=O)O (racemic) [PPDA, (±)-cis-1-(Phenanthrene-2-ylcarbonyl)Piperazine-2,3-Dicarboxylic Acid]
Ki [1]: 540 nM
effect on ACPD-induced depolarizations [2]: no effect
Ki [3]: 310 nM
Ki (NR1/NR2D [4]): 110 nM
antagonism of AMPA-induced depolarizations [5]: 15%
Ki [6]: 7200 nM
Ki (NR1/NR2C [7]): 70 nM
inhibition of [3H]CNQX binding to native AMPA receptors (native AMPA receptors): 44.6±1.3%
Ki (NR1/NR2B [8]): 350 nM
antagonism of NMDA-induced depolarizations (NMDA receptors; PPDA 5 μM, NMDA 50 μM, neonatal rat motoneurones): 88%
Kd (NMDA receptors; neonatal rat spinal cord, competitive antagonist, read-out: affinity (Kd), Schild analysis of NMDA-induced depolarizations): 247 nM
potency as antagonist of NMDA-induced depolarizations relative to CPP-ene (NMDA receptors; spinal cord): as potent as CPP-ene
inhibition of [3H]kainate binding [9]: 9.3±6.7%
antagonism of kainate-induced depolarizations [10]: 21%
Ki [11]: 390 nM

SMILES: O=C(O)C1CN(CC=CP(=O)(O)O)CCN1 (stereo not drawn) [CPP-ene, 4-(3-phosphonoprop-2-enyl)piperazine-2-carboxylic acid]
Ki (NR1/NR2C [12]): 1460 nM
Ki (NR1/NR2D [13]): 1840 nM
Ki (NR1/NR2B [14]): 140 nM
Ki (NR1/NR2A [15]): 110 nM

SMILES: N[C@H](CCCP(=O)(O)O)C(=O)O [D-AP5]
Ki (NR1/NR2C [12]): 1640 nM
Ki (NR1/NR2D [13]): 3710 nM
Ki (NR1/NR2B [14]): 460 nM
Ki (NR1/NR2A [15]): 280 nM

Ki (NR1/NR2D [4]; recombinant, NR1a co-expressed in Xenopus oocytes, mean +/- SEM, read-out: NR1/NR2D Ki): 4290 nM
Ki (NR1/NR2A [16]): 15800 nM
Ki (NR1/NR2C [7]; recombinant, NR1a co-expressed in Xenopus oocytes, mean +/- SEM, read-out: NR1/NR2C Ki): 8980 nM
Ki (NR1/NR2B [8]; recombinant, NR1a co-expressed in Xenopus oocytes, mean +/- SEM, read-out: NR1/NR2B Ki): 5010 nM
SMILES: O=C(O)C1NCCN(C(=O)c2ccc(-c3ccccc3)cc2)C1C(=O)O (stereo not drawn) [PBPD, 1-(4-phenylbenzoyl)-piperazine-2,3-dicarboxylic acid, reference compound]
